Measured values reported in article PMC6030240 (Molecules and Cells, 2018).
Like-named read-outs stand apart in the source and are kept apart here.

Tests used:
[1] = molecular target: T1, Spleen tyrosine kinase (SYK) (Homo sapiens, UniProt P43405); experiment: co-crystal structure at […] Å; assay type: biochemical
[2] = molecular target: T1, Spleen tyrosine kinase (SYK); experiment: co-crystal structure at […] Å; assay type: biochemical; remark: listed apart in the source

| SMILES | IC50 [1] | IC50 [2] |
| --- | --- | --- |
| CS(=O)(=O)c1ccc(Nc2nc(N[C@H]3CCCC[C@@H]3N)nc3cc[nH]c(=O)c23)cc1 [SKI-O-85, (1S,2S)-2-((4-((4-(methylsulfonyl)phenyl)amino)-5-oxo-5,6-dihydropyrido[4,3-d]pyrimidin-2-yl)amino)cyclohexan-1-aminium] | 211 nM | – |
| Cn1ncc2cc(Nc3nc(N4CCC(O)CC4)nc4cc[nH]c(=O)c34)ccc21 [SKI-G-618, 2-(4-hydroxypiperidin-1-yl)-4-((1-methyl-1H-indazol-5-yl)amino)pyrido[4,3-d]pyrimidin-5(6H)-one] | – | 17.7 nM |
